pKi: −log10 of the molar value. Active and inactive are the calls of the source. The rule behind the calls is not given here.
Assays:
[1] = biological target: Sigma non-opioid intracellular receptor 1 (Homo sapiens, UniProt Q99720); experiment: Displacement of [3H](+)-pentazocine from human sigma 1 receptor transfected in human HEK293T cells assessed as inhibition constant by radioligand competition binding assay; assay type: cell-based
D(3) dopamine receptor = D(3) dopamine receptor (Homo sapiens, UniProt P35462); experiment: Binding affinity to dopamine D3 receptor (unknown origin) assessed as inhibition constant
D(1B) dopamine receptor = D(1B) dopamine receptor (Homo sapiens, UniProt P21918); experiment: Binding affinity to dopamine D5 receptor (unknown origin) assessed as inhibition constant
[2] = biological target: Muscarinic acetylcholine receptor M1 (Homo sapiens, UniProt P11229); experiment: Binding affinity to M1 receptor (unknown origin) assessed as inhibition constant
[3] = biological target: Muscarinic acetylcholine receptor M2 (Homo sapiens, UniProt P08172); experiment: Binding affinity to M2 receptor (unknown origin) assessed as inhibition constant
Histamine H3 receptor = Histamine H3 receptor (Homo sapiens, UniProt Q9Y5N1); experiment: Binding affinity to histamine H3 receptor (unknown origin) assessed as inhibition constant
[4] = biological target: 5-hydroxytryptamine receptor 1B (Homo sapiens, UniProt P28222); experiment: Binding affinity to 5-HT1B receptor (unknown origin) assessed as inhibition constant
[5] = biological target: 5-hydroxytryptamine receptor 2C (Homo sapiens, UniProt P28335); experiment: Binding affinity to 5-HT2C receptor (unknown origin) assessed as inhibition constant
[6] = biological target: Alpha-2A adrenergic receptor (Homo sapiens, UniProt P08913); experiment: Binding affinity to alpha2A receptor (unknown origin) assessed as inhibition constant
[7] = Cytotoxicity against HFF-1 cells measured after 72 hrs by MTT assay; assay type: toxicity, cell-based; details: human
MIA PaCa-2 [8] = experiment: Induction of apoptosis in human MIA PaCa-2 cells assessed as viable cells at […] measured after 48 hrs by Annexin V-Alexa Fluor 488/propidium iodide staining based flow cytometry (reference value: 82.23%); assay type: functional; details: dose 2.5 µM, read-out: Activity
MIA PaCa-2 [9] = experiment: Induction of apoptosis in human MIA PaCa-2 cells assessed as viable cells at 5.0 uM measured after 48 hrs by Annexin V-Alexa Fluor 488/propidium iodide staining based flow cytometry (reference value: 82.23%); assay type: functional; details: read-out: Activity
MIA PaCa-2 [10] = experiment: Induction of apoptosis in human MIA PaCa-2 cells assessed as early apoptotic cells at 5.0 uM measured after 48 hrs by Annexin V-Alexa Fluor 488/propidium iodide staining based flow cytometry (reference value: 4.11%); assay type: functional
MIA PaCa-2 [11] = experiment: Induction of apoptosis in human MIA PaCa-2 cells assessed as late apoptotic cells at 1.0 uM measured after 48 hrs by Annexin V-Alexa Fluor 488/propidium iodide staining based flow cytometry (reference value: 6.63%); assay type: functional
MIA PaCa-2 [12] = experiment: Induction of apoptosis in human MIA PaCa-2 cells assessed as late apoptotic cells at […] measured after 48 hrs by Annexin V-Alexa Fluor 488/propidium iodide staining based flow cytometry (reference value: 6.63%); assay type: functional; details: dose 2.5 µM
MIA PaCa-2 [13] = experiment: Induction of apoptosis in human MIA PaCa-2 cells assessed as late apoptotic cells at 10.0 uM measured after 48 hrs by Annexin V-Alexa Fluor 488/propidium iodide staining based flow cytometry (reference value: 6.63%); assay type: functional
MIA PaCa-2 [14] = experiment: Induction of apoptosis in human MIA PaCa-2 cells assessed as necrotic cells at 5.0 uM measured after 48 hrs by Annexin V-Alexa Fluor 488/propidium iodide staining based flow cytometry (reference value: 7.03%); assay type: functional
MIA PaCa-2 [15] = experiment: Induction of apoptosis in human MIA PaCa-2 cells assessed as necrotic cells at 10.0 uM measured after 48 hrs by Annexin V-Alexa Fluor 488/propidium iodide staining based flow cytometry (reference value: 7.03%); assay type: functional
HCT-116 [16] = experiment: Induction of apoptosis in human HCT-116 cells assessed as viable cells at […] measured after 48 hrs by Annexin V-Alexa Fluor 488/propidium iodide staining based flow cytometry (reference value: 79.69%); assay type: functional; details: dose 2.5 µM, read-out: Activity
HCT-116 [17] = experiment: Induction of apoptosis in human HCT-116 cells assessed as late apoptotic cells at […] measured after 48 hrs by Annexin V-Alexa Fluor 488/propidium iodide staining based flow cytometry (reference value: 8.48%); assay type: functional; details: dose 2.5 µM
HCT-116 [18] = experiment: Induction of apoptosis in human HCT-116 cells assessed as late apoptotic cells at 10.0 uM measured after 48 hrs by Annexin V-Alexa Fluor 488/propidium iodide staining based flow cytometry (reference value: 8.48%); assay type: functional
MIA PaCa-2 [19] = experiment: Induction of cell cycle arrest in human MIA PaCa-2 cells assessed as accumulation of cells in G0/G1 phase at 1 uM measured after 24 hrs by propidium iodide staining-based flow cytometric analysis (reference value: 53%); assay type: functional
MIA PaCa-2 [20] = experiment: Induction of cell cycle arrest in human MIA PaCa-2 cells assessed as accumulation of cells in G2/M phase at 1 uM measured after 24 hrs by propidium iodide staining-based flow cytometric analysis (reference value: 16%); assay type: functional
HCT-116 [21] = experiment: Induction of cell cycle arrest in human HCT-116 cells assessed as accumulation of cells in G0/G1 phase at […] measured after 24 hrs by propidium iodide staining-based flow cytometric analysis (reference value: 43%); assay type: functional; details: dose 2.5 µM
[22] = Half life in CD-1 mouse plasma at 20 mg/kg, po; assay type: ADME, organism-based
[23] = Clearance in CD-1 mouse plasma at 10 mg/kg, iv; assay type: ADME, organism-based
[24] = Apparent volume of distribution during terminal phase in CD-1 mouse plasma at 20 mg/kg, po; assay type: ADME, organism-based; details: read-out: Vz/F
[25] = Toxicity in C57BL/6 mouse assessed as effect on body weight at 60 mg/kg, ip measured upto 28 days; assay type: organism-based; details: in vivo, 672 h, time < 28 day
[26] = Toxicity in C57BL/6 mouse assessed as effect on body weight at 30 mg/kg, po administered for 32 days and measured on day 1 to 3,5,6,8 to 32 in presence of copper sulfate; assay type: organism-based; details: in vivo, 768 h, time 32 day
HCT-116 [27] = experiment: Antagonistic cytotoxicity against human HCT-116 cells at upto 1 uM measured after 6 days in presence of disulfiram by crystal violet staining based analysis; assay type: functional, cell-based; details: time 6.0 day
MIA PaCa-2 [28] = experiment: Inhibition of colony formation in human MIA PaCa-2 cells at 0.04 to 30 uM pretreated with ammonium tetrathiomolybdate for 4 hrs followed by compound addition and measured after 6 days; assay type: functional, cell-based; details: dose 0.04-30 µM, time 6.0 day
MIA PaCa-2 [29] = experiment: Additive ferroptosis activity in human MIA-PaCa-2 cells at upto 1 uM measured after 7 days in presence of ferrostatin-1 by crystal violet staining based analysis; assay type: functional, cell-based; details: time 7.0 day
MIA PaCa-2 [30] = experiment: Synergistic ferroptosis activity in human MIA-PaCa-2 cells at upto 1 uM measured after 7 days in presence of erastin by crystal violet staining based analysis; assay type: functional, cell-based; details: time 7.0 day
MIA PaCa-2 [31] = experiment: Synergistic ferroptosis activity in human MIA-PaCa-2 cells at upto 1 uM measured after 7 days in presence of FIN56 by crystal violet staining based analysis; assay type: functional, cell-based; details: time 7.0 day
MIA PaCa-2 [32] = experiment: Synergistic cytotoxicity in human MIA PaCa-2 cells at upto 1 uM measured after 7 days in presence of gemcitabine by crystal violet staining based analysis; assay type: functional, cell-based; details: time 7.0 day
MIA PaCa-2 [33] = experiment: Synergistic cytotoxicity in human MIA PaCa-2 cells at upto 1 uM measured after 7 days in presence of CI-27 by crystal violet staining based analysis; assay type: functional, cell-based; details: time 7.0 day
[34] = Solubility of the compound; assay type: physicochemical

Sequence of 5-hydroxytryptamine receptor 2C (P28335 whole entry): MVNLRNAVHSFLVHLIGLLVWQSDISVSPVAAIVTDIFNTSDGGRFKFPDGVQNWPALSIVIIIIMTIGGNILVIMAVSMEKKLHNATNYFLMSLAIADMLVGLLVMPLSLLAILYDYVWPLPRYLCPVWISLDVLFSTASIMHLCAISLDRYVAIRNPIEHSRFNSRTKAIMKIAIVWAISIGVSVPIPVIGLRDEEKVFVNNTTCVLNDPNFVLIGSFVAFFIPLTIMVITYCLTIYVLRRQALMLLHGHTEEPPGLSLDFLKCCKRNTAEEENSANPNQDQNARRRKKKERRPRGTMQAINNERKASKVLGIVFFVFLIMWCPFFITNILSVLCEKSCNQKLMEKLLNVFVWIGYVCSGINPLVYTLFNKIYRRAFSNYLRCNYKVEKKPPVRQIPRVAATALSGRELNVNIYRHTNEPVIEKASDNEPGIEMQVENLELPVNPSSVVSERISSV
Sequence of Histamine H3 receptor (Q9Y5N1 whole entry): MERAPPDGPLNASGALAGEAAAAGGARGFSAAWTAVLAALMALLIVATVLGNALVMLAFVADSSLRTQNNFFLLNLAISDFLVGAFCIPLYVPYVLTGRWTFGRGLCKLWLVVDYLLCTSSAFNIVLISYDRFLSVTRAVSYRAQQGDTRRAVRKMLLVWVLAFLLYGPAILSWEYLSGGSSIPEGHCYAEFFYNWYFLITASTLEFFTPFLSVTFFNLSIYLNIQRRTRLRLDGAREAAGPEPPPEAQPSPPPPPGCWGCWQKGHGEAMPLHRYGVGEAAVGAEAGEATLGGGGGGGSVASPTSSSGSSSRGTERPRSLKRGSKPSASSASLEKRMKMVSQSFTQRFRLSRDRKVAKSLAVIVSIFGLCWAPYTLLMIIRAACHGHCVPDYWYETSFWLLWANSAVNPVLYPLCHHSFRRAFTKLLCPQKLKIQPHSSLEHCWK
Sequence of D(1B) dopamine receptor (P21918 whole entry): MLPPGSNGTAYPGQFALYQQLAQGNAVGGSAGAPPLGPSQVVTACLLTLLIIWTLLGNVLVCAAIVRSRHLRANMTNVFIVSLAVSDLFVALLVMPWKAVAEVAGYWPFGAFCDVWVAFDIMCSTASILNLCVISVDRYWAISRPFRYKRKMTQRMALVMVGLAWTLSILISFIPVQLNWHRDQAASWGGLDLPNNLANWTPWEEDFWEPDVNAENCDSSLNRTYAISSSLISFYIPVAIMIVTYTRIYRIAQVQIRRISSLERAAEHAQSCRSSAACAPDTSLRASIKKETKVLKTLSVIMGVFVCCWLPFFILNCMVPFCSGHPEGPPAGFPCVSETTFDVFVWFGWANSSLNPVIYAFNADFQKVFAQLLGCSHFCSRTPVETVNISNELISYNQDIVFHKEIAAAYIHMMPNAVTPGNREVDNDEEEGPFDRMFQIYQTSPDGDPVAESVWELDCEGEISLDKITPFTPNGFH
Sequence of Alpha-2A adrenergic receptor (P08913 whole entry): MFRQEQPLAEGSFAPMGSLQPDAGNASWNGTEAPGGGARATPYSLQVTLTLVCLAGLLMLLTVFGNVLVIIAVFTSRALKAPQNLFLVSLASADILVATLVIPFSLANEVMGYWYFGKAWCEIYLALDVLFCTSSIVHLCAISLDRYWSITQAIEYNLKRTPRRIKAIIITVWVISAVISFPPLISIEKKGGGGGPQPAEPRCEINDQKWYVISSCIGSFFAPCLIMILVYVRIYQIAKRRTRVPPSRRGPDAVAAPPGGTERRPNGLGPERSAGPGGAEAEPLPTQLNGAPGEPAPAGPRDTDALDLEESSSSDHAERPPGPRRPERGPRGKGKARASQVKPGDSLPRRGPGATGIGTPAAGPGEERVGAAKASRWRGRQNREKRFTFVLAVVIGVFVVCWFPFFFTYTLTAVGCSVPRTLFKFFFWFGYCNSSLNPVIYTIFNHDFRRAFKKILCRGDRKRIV
Sequence of Muscarinic acetylcholine receptor M2 (P08172 whole entry): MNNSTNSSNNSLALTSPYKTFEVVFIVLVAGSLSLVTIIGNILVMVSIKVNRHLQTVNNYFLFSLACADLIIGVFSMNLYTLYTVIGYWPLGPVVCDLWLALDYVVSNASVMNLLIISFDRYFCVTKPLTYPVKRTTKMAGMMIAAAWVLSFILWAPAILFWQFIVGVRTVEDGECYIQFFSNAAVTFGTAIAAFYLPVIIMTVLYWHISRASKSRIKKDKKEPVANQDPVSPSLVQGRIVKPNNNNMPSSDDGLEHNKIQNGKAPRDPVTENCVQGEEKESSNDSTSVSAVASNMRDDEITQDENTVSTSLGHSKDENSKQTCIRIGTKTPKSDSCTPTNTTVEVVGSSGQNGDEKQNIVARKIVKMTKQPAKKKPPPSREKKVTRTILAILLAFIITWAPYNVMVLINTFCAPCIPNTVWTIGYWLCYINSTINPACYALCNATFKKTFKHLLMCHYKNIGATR
Sequence of D(3) dopamine receptor (P35462 whole entry): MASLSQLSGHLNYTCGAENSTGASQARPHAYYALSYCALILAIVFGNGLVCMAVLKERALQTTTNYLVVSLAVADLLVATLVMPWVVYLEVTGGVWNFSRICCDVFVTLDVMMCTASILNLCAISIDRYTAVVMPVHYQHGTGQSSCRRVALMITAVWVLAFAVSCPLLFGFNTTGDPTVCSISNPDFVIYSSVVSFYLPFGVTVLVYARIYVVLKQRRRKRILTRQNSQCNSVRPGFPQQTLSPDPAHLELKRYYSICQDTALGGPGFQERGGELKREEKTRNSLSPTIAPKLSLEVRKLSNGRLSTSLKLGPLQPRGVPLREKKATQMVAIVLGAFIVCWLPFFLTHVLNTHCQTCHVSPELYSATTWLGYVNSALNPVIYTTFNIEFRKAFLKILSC
Sequence of Sigma non-opioid intracellular receptor 1 (Q99720 whole entry): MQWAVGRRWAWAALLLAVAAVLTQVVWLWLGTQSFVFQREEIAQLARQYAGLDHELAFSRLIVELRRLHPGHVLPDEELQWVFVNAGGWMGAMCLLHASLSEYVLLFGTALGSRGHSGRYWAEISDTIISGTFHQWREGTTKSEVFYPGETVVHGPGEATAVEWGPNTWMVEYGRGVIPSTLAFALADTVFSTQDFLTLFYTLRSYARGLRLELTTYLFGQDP
Sequence of Muscarinic acetylcholine receptor M1 (P11229 whole entry): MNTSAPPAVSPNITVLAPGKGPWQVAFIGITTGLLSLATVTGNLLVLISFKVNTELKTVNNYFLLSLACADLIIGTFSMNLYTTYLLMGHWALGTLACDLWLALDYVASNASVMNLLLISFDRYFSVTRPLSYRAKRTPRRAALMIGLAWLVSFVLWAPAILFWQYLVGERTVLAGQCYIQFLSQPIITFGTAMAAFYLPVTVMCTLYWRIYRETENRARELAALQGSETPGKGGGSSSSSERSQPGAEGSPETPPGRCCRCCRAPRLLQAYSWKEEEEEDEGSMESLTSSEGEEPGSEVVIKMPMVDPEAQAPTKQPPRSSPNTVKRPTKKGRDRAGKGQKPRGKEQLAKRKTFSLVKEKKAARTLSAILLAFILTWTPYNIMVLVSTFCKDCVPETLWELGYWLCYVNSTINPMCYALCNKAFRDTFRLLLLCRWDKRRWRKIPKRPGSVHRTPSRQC
Sequence of 5-hydroxytryptamine receptor 1B (P28222 whole entry): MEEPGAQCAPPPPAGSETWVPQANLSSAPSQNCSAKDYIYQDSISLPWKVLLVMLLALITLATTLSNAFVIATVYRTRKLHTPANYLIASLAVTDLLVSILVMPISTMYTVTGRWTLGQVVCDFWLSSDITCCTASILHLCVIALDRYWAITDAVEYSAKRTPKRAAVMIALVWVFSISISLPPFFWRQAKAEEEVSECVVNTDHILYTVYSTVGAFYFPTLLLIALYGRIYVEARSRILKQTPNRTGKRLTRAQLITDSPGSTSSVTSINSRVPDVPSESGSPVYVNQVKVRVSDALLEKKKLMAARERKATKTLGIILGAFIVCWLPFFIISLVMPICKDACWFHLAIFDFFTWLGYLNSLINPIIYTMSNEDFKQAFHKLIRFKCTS

pKi [1]: 6.28 | pKi (D(3) dopamine receptor): 6.20 | pKi (D(1B) dopamine receptor): 5.81 | pKi [2]: 5.38 | pKi [3]: 6.17 | pKi (Histamine H3 receptor): 5.93 | pKi [4]: 6.19 | pKi [5]: 6.33 | pKi [6]: 5.56 | half-life [22]: 6.1 h | clearance [23]: 62.2 mL/min/kg | Vd/F [24]: 51.8 L/kg | solubility [34]: > 5000 µg/mL
SMILES: CCN(CC)CCCC(C)Nc1cnc(C(=O)Nc2ccc(Cl)c3cccnc23)cn1 (configuration not stated)
IC50 at 72 h [7]: 8000 nM | viability at […] (MIA PaCa-2 [8]): 54.5% | viability at 5 µM (MIA PaCa-2 [9]): 32.4% | Activity (MIA PaCa-2 [10]): 22.26% | Activity (MIA PaCa-2 [11]): 30.8% | Activity (MIA PaCa-2 [12]): 25.72% | Activity (MIA PaCa-2 [13]): 53.96% | Activity (MIA PaCa-2 [14]): 5.32% | Activity (MIA PaCa-2 [15]): 7.21% | viability at […] (HCT-116 [16]): 68.1% | Activity (HCT-116 [17]): 20.26% | Activity (HCT-116 [18]): 47.98% | Activity (MIA PaCa-2 [19]): 46% | Activity (MIA PaCa-2 [20]): 13% | Activity (HCT-116 [21]): 48% | Activity [25]: Non-Toxic | Activity [26]: Non-Toxic | Activity (HCT-116 [27]): inactive | inhibition (MIA PaCa-2 [28]): inactive | Activity (MIA PaCa-2 [29]): Active | Activity (MIA PaCa-2 [30]): Active | Activity (MIA PaCa-2 [31]): Active | Activity (MIA PaCa-2 [32]): inactive | Activity (MIA PaCa-2 [33]): inactive

— ChEMBL document CHEMBL5316327, “Design and Synthesis of Orally Active Quinolyl Pyrazinamides as Sigma 2 Receptor Ligands for the Treatment of Pancreatic Cancer” (J Med Chem, 2023)
